This is an account of results in patent US9248584B2, “High-temperature spray drying process and apparatus” (Bend Research, Inc., priority 2010, dated 2016).

For orientation: logP means the decadic logarithm of the partition coefficient of the neutral form, usually between octanol and water.

Data set [1] in a line: Room temperature solubility in methanol. Type of data set: physicochemical. The settings on record: room temperature (20° C. to 30° C.).
Data set [2] in a line: Log P value. Type of data set: physicochemical.

Regarding `CCC(=O)O[C@]1(C(=O)SCF)[C@H](C)C[C@H]2[C@@H]3C[C@H](F)C4=CC(=O)C=C[C@]4(C)[C@@]3(F)[C@@H](O)C[C@@]21C` [Active Agent 1, S-(fluoromethyl) 6α,9-difluoro-11β,17-dihydroxy-16α-methyl-3-oxoandrosta-1,4-diene-17β-carbothioate, 17-propionate], the solubility in methanol in data set [1] is 0.3 wt %. The logP in data set [2] worked out at 3.7.
